Starred links: 1 amine or outer side, 2 acyl side, 3 side chain; linkers in the order of their positions; H or OH if unused. Non-standard residues stand in square brackets, D forms with d. Residues, ends and D or L forms follow the SMILES beside them. Groups on a side chain read outwards from the residue. *: point of attachment. C17 diacid = O=C(O)CCCCCCCCCCCCCCCC(=O)*; γGlu = O=C(O)[C@H](CCC(=O)[*:2])N[*:1]; NMeY = CN[C@@H](Cc1ccc(O)cc1)C(=O)O; AEEA = NCCOCCOCC(=O)O; Aib = CC(C)(N)C(=O)O
Experiment: physchem
Details: pH 7.4, aqueous buffer
Procedure, shortened: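 Solubility at pH 7.4 determined by stepwise addition of 200 mM phosphate buffer in 100 μL increments to 3 mg peptide, mixing briefly each time, until no insoluble material remained, then measured by liquid chromatography.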

Compound | solubility [µg/mL]
CC[C@H](C)[C@H](NC(=O)[C@H](CO)NC(=O)[C@H](Cc1ccc(O)cc1)NC(=O)[C@H](CC(=O)O)NC(=O)[C@H](CO)NC(=O)[C@@H](NC(=O)[C@H](Cc1ccccc1)NC(=O)[C@@H](NC(=O)CNC(=O)[C@H](CCC(=O)O)NC(=O)C(C)(C)NC(=O)[C@H](Cc1ccc(O)cc1)NC)[C@@H](C)O)[C@@H](C)CC)C(=O)N[C@@H](C)C(=O)N[C@@H](CC(C)C)C(=O)N[C@@H](CC(=O)O)C(=O)N[C@@H](CCCNC(=N)N)C(=O)NC(C)(C)C(=O)N[C@@H](Cc1c[nH]cn1)C(=O)N[C@@H](CCC(N)=O)C(=O)NC(C)(C)C(=O)N[C@@H](CCCCNC(=O)COCCOCCNC(=O)COCCOCCNC(=O)CC[C@H](NC(=O)CC[C@H](NC(=O)CCCCCCCCCCCCCCCC(=O)O)C(=O)O)C(=O)O)C(=O)N[C@@H](Cc1ccccc1)C(=O)N[C@H](C(=O)N[C@@H](CC(N)=O)C(=O)N[C@@H](Cc1c[nH]c2ccccc12)C(=O)N[C@@H](CC(C)C)C(=O)N[C@@H](CC(C)C)C(=O)N[C@@H](C)C(=O)N[C@@H](CCC(N)=O)C(=O)N[C@@H](CCCNC(=N)N)C(N)=O)C(C)C [Compound 257] (H-[NMeY][Aib]EGTFISDYSIALDR[Aib]HQ[Aib]K([AEEA-AEEA-γGlu-γGlu-C17 diacid])FVNWLLAQR-NH2) | ≥ 7500
CC[C@H](C)[C@H](NC(=O)[C@H](CO)NC(=O)[C@H](Cc1ccc(O)cc1)NC(=O)[C@H](CC(=O)O)NC(=O)[C@H](CO)NC(=O)[C@@H](NC(=O)[C@H](Cc1ccccc1)NC(=O)[C@@H](NC(=O)CNC(=O)[C@H](CCC(=O)O)NC(=O)C(C)(C)NC(=O)[C@H](Cc1ccc(O)cc1)NC)[C@@H](C)O)[C@@H](C)CC)C(=O)N[C@@H](C)C(=O)N[C@@H](CC(C)C)C(=O)N[C@@H](CC(=O)O)C(=O)N[C@@H](CCCNC(=N)N)C(=O)NC(C)(C)C(=O)N[C@@H](Cc1c[nH]cn1)C(=O)N[C@@H](CCC(N)=O)C(=O)NC(C)(C)C(=O)N[C@@H](CC(N)=O)C(=O)N[C@@H](Cc1ccccc1)C(=O)N[C@H](C(=O)N[C@@H](CC(N)=O)C(=O)N[C@@H](Cc1c[nH]c2ccccc12)C(=O)N[C@@H](CC(C)C)C(=O)N[C@@H](CC(C)C)C(=O)N[C@@H](C)C(=O)N[C@@H](CCCCNC(=O)COCCOCCNC(=O)COCCOCCNC(=O)CC[C@H](NC(=O)CC[C@H](NC(=O)CCCCCCCCCCCCCCCC(=O)O)C(=O)O)C(=O)O)C(=O)N[C@@H](CCCNC(=N)N)C(N)=O)C(C)C [Compound 258] (H-[NMeY][Aib]EGTFISDYSIALDR[Aib]HQ[Aib]NFVNWLLAK([AEEA-AEEA-γGlu-γGlu-C17 diacid])R-NH2) | ≥ 6000
CC[C@H](C)[C@H](NC(=O)[C@H](Cc1ccccc1)NC(=O)[C@@H](NC(=O)CNC(=O)[C@H](CCC(=O)O)NC(=O)C(C)(C)NC(=O)[C@H](Cc1ccc(O)cc1)NC)[C@@H](C)O)C(=O)N[C@@H](CO)C(=O)N[C@@H](CC(=O)O)C(=O)N[C@@H](Cc1ccc(O)cc1)C(=O)N[C@@H](CO)C(=O)N[C@H](C(=O)NC(C)(C)C(=O)N[C@@H](CCCCNC(=O)CNC(=O)CNC(=O)CNC(=O)CNC(=O)CNC(=O)CC[C@H](NC(=O)CC[C@H](NC(=O)CCCCCCCCCCCCCCCC(=O)O)C(=O)O)C(=O)O)C(=O)N[C@@H](CC(=O)O)C(=O)N[C@@H](CCCNC(=N)N)C(=O)NC(C)(C)C(=O)N[C@@H](C)C(=O)N[C@@H](CCC(N)=O)C(=O)NC(C)(C)C(=O)N[C@@H](CC(N)=O)C(=O)N[C@@H](Cc1ccccc1)C(=O)N[C@H](C(=O)N[C@@H](CC(N)=O)C(=O)N[C@@H](Cc1c[nH]c2ccccc12)C(=O)N[C@@H](CC(C)C)C(=O)N[C@@H](CC(C)C)C(=O)N[C@@H](C)C(=O)N[C@@H](CCC(N)=O)C(=O)N[C@@H](CCCNC(=N)N)C(N)=O)C(C)C)[C@@H](C)CC [Compound 264] | < 6000

Same assay, conditions: pH 7.4, aqueous buffer, pH 7.4 Phosphate Buffer - Solubility, 200 mM Phosphate buffer pH 7.4

Compound | solubility [µg/mL]
CC[C@H](C)[C@H](NC(=O)[C@H](CO)NC(=O)[C@H](Cc1ccc(O)cc1)NC(=O)[C@H](CC(=O)O)NC(=O)[C@H](CO)NC(=O)[C@@H](NC(=O)[C@H](Cc1ccccc1)NC(=O)[C@@H](NC(=O)CNC(=O)[C@H](CCC(=O)O)NC(=O)C(C)(C)NC(=O)[C@H](Cc1ccc(O)cc1)NC)[C@@H](C)O)[C@@H](C)CC)C(=O)N[C@@H](C)C(=O)N[C@@H](CC(C)C)C(=O)N[C@@H](CC(=O)O)C(=O)N[C@@H](CCCNC(=N)N)C(=O)N[C@@H](CCCCNC(=O)CNC(=O)CNC(=O)CNC(=O)CNC(=O)CNC(=O)CCCCCCCCCCCCCCCC(=O)O)C(=O)N[C@@H](Cc1c[nH]cn1)C(=O)N[C@@H](CCC(N)=O)C(=O)NC(C)(C)C(=O)N[C@@H](CC(N)=O)C(=O)N[C@@H](Cc1ccccc1)C(=O)N[C@H](C(=O)N[C@@H](CC(N)=O)C(=O)N[C@@H](Cc1c[nH]c2ccccc12)C(=O)N[C@@H](CC(C)C)C(=O)N[C@@H](CC(C)C)C(=O)N[C@@H](C)C(=O)N[C@@H](CCC(N)=O)C(=O)N[C@@H](CCCNC(=N)N)C(=O)N1CCC[C@H]1C(=O)N[C@@H](CO)C(=O)N[C@@H](CO)C(=O)NCC(=O)N[C@@H](C)C(=O)N1CCC[C@H]1C(=O)N1CCC[C@H]1C(=O)N1CCC[C@H]1C(=O)N[C@@H](CO)C(=O)O)C(C)C [Compound 259] | < 6000
CC[C@H](C)[C@H](NC(=O)[C@H](CO)NC(=O)[C@H](Cc1ccc(O)cc1)NC(=O)[C@H](CC(=O)O)NC(=O)[C@H](CO)NC(=O)[C@@H](NC(=O)[C@H](Cc1ccccc1)NC(=O)[C@@H](NC(=O)CNC(=O)[C@H](CCC(=O)O)NC(=O)C(C)(C)NC(=O)[C@H](Cc1ccc(O)cc1)NC)[C@@H](C)O)[C@@H](C)CC)C(=O)N[C@@H](C)C(=O)N[C@@H](CCCCNC(=O)CNC(=O)CNC(=O)CNC(=O)CNC(=O)CNC(=O)CC[C@H](NC(=O)CCCCCCCCCCCCCCCC(=O)O)C(=O)O)C(=O)N[C@@H](CC(=O)O)C(=O)N[C@@H](CCCNC(=N)N)C(=O)NC(C)(C)C(=O)N[C@@H](C)C(=O)N[C@@H](CCC(N)=O)C(=O)NC(C)(C)C(=O)N[C@@H](CC(N)=O)C(=O)N[C@@H](Cc1ccccc1)C(=O)N[C@H](C(=O)N[C@@H](CC(N)=O)C(=O)N[C@@H](Cc1c[nH]c2ccccc12)C(=O)N[C@@H](CC(C)C)C(=O)N[C@@H](CC(C)C)C(=O)N[C@@H](C)C(=O)N[C@@H](CCC(N)=O)C(=O)N[C@@H](CCCNC(=N)N)C(=O)N1CCC[C@H]1C(=O)N[C@@H](CO)C(=O)N[C@@H](CO)C(=O)NCC(=O)N[C@@H](C)C(=O)N1CCC[C@H]1C(=O)N1CCC[C@H]1C(=O)N1CCC[C@H]1C(=O)N[C@@H](CO)C(N)=O)C(C)C [Compound 260] | < 6000
CC[C@H](C)[C@H](NC(=O)[C@H](Cc1ccccc1)NC(=O)[C@@H](NC(=O)CNC(=O)[C@H](CCC(=O)O)NC(=O)C(C)(C)NC(=O)[C@H](Cc1ccc(O)cc1)NC)[C@@H](C)O)C(=O)N[C@@H](CO)C(=O)N[C@@H](CC(=O)O)C(=O)N[C@@H](Cc1ccc(O)cc1)C(=O)N[C@@H](CO)C(=O)N[C@H](C(=O)NC(C)(C)C(=O)N[C@@H](CCCCNC(=O)CNC(=O)CNC(=O)CNC(=O)CNC(=O)CNC(=O)CC[C@H](NC(=O)CCCCCCCCCCCCCCCC(=O)O)C(=O)O)C(=O)N[C@@H](CC(=O)O)C(=O)N[C@@H](CCCNC(=N)N)C(=O)NC(C)(C)C(=O)N[C@@H](C)C(=O)N[C@@H](CCC(N)=O)C(=O)NC(C)(C)C(=O)N[C@@H](CC(N)=O)C(=O)N[C@@H](Cc1ccccc1)C(=O)N[C@H](C(=O)N[C@@H](CC(N)=O)C(=O)N[C@@H](Cc1c[nH]c2ccccc12)C(=O)N[C@@H](CC(C)C)C(=O)N[C@@H](CC(C)C)C(=O)N[C@@H](C)C(=O)N[C@@H](CCC(N)=O)C(=O)N[C@@H](CCCNC(=N)N)C(=O)N1CCC[C@H]1C(=O)N[C@@H](CO)C(=O)N[C@@H](CO)C(=O)NCC(=O)N[C@@H](C)C(=O)N1CCC[C@H]1C(=O)N1CCC[C@H]1C(=O)N1CCC[C@H]1C(=O)N[C@@H](CO)C(N)=O)C(C)C)[C@@H](C)CC [Compound 261] | < 6000
CC[C@H](C)[C@H](NC(=O)[C@H](Cc1ccccc1)NC(=O)[C@@H](NC(=O)CNC(=O)[C@H](CCC(=O)O)NC(=O)C(C)(C)NC(=O)[C@H](Cc1ccc(O)cc1)NC)[C@@H](C)O)C(=O)N[C@@H](CO)C(=O)N[C@@H](CC(=O)O)C(=O)N[C@@H](Cc1ccc(O)cc1)C(=O)N[C@@H](CO)C(=O)N[C@H](C(=O)NC(C)(C)C(=O)N[C@@H](CCCCNC(=O)CNC(=O)CNC(=O)CNC(=O)CNC(=O)CNC(=O)CC[C@H](NC(=O)CCCCCCCCCCCCCCCCC(=O)O)C(=O)O)C(=O)N[C@@H](CC(=O)O)C(=O)N[C@@H](CCCNC(=N)N)C(=O)NC(C)(C)C(=O)N[C@@H](C)C(=O)N[C@@H](CCC(N)=O)C(=O)NC(C)(C)C(=O)N[C@@H](CC(N)=O)C(=O)N[C@@H](Cc1ccccc1)C(=O)N[C@H](C(=O)N[C@@H](CC(N)=O)C(=O)N[C@@H](Cc1c[nH]c2ccccc12)C(=O)N[C@@H](CC(C)C)C(=O)N[C@@H](CC(C)C)C(=O)N[C@@H](C)C(=O)N[C@@H](CCC(N)=O)C(=O)N[C@@H](CCCNC(=N)N)C(=O)N1CCC[C@H]1C(=O)N[C@@H](CO)C(=O)N[C@@H](CO)C(=O)NCC(=O)N[C@@H](C)C(=O)N1CCC[C@H]1C(=O)N1CCC[C@H]1C(=O)N1CCC[C@H]1C(=O)N[C@@H](CO)C(N)=O)C(C)C)[C@@H](C)CC [Compound 262] | < 6000
CC[C@H](C)[C@H](NC(=O)[C@H](Cc1ccccc1)NC(=O)[C@@H](NC(=O)CNC(=O)[C@H](CCC(=O)O)NC(=O)C(C)(C)NC(=O)[C@H](Cc1ccc(O)cc1)NC)[C@@H](C)O)C(=O)N[C@@H](CO)C(=O)N[C@@H](CC(=O)O)C(=O)N[C@@H](Cc1ccc(O)cc1)C(=O)N[C@@H](CO)C(=O)N[C@H](C(=O)NC(C)(C)C(=O)N[C@@H](CCCCNC(=O)COCCOCCNC(=O)COCCOCCNC(=O)CC[C@H](NC(=O)CCCCCCCCCCCCCCCC(=O)O)C(=O)O)C(=O)N[C@@H](CC(=O)O)C(=O)N[C@@H](CCCNC(=N)N)C(=O)NC(C)(C)C(=O)N[C@@H](C)C(=O)N[C@@H](CCC(N)=O)C(=O)NC(C)(C)C(=O)N[C@@H](CC(N)=O)C(=O)N[C@@H](Cc1ccccc1)C(=O)N[C@H](C(=O)N[C@@H](CC(N)=O)C(=O)N[C@@H](Cc1c[nH]c2ccccc12)C(=O)N[C@@H](CC(C)C)C(=O)N[C@@H](CC(C)C)C(=O)N[C@@H](C)C(=O)N[C@@H](CCC(N)=O)C(=O)N[C@@H](CCCNC(=N)N)C(=O)N1CCC[C@H]1C(=O)N[C@@H](CO)C(=O)N[C@@H](CO)C(=O)NCC(=O)N[C@@H](C)C(=O)N1CCC[C@H]1C(=O)N1CCC[C@H]1C(=O)N1CCC[C@H]1C(=O)N[C@@H](CO)C(N)=O)C(C)C)[C@@H](C)CC [Compound 263] (H-[NMeY][Aib]EGTFISDYSI[Aib]K([AEEA-AEEA-γGlu-C17 diacid])DR[Aib]AQ[Aib]NFVNWLLAQRPSSGAPPPS-NH2) | ≥ 7500

From patent publication US20230143604A1, “QW DOSING OF GIP RECEPTOR AGONIST PEPTIDE COMPOUNDS AND USES THEREOF” (TAKEDA PHARMACEUTICAL COMPANY LIMITED, priority 2020, published 2023)
